Data on two compounds can be found in patent US4307194A, “Inhibitors, obtained from bacilli, for glycoside hydrolases” (Bayer Aktiengesellschaft, priority 1976, dated 1981).

Assay [1] deals with T1, saccharase from swine small intestine mucosa (Sus scrofa, UniProt P56729).
T1 construct: sucrase subunit cut from the sucrase-isomaltase precursor
Briefly: Saccharase test (saccharase inhibitor units, SIU). To be noted: solid product. In kind it is biochemical.
Protocol: A saccharase inhibitor unit (SIU) is defined as the amount of inhibitor which inhibits two saccharase units to the extent of 50%. A saccharase unit (SU) is the amount of enzyme which, under the test conditions indicated below, splits 1 μmol of sucrose into glucose and fructose in one minute. The μmols of glucose formed are determined quantitatively with the aid of the glucose oxidase reaction under conditions under which further splitting of sucrose by saccharase no longer takes place. In order to carry out the test, 1-20 μg of inhibitor, or 1-20 μl of the solution to be tested, are added to 0.05 ml of saccharase solution adjusted to a content of 0.12 SU and the mixture is made up to 0.1 ml with 0.1 M sodium maleate buffer of pH 6.0. Suitably, a solubilised saccharase from swine small intestine mucosa according to B. Borgstrom, A. Dahlquist, Acta Chem. Scand. […] The mixture is equilibrated at 35° C. for 10 minutes and 0.1 ml of a 0.05 M sucrose solution in 0.1 M sodium maleate buffer of pH 6.0, prewarmed to 35° C., is then added. The mixture is incubated at 35° C. for 20 minutes and the saccharase reaction is stopped by adding 1 ml of glucose oxidase reagent and the mixture is incubated for a further 30 minutes at 35° C. […] 1 ml of 50% strength H2 SO4 is then added and the mixture is measured at 545 nm against a corresponding blank value. […]

Another assay concerns microbial α-glucosidases. To be noted: T. NIWA et al. Agr. Biol. Chem. 34, 966; cited from earlier work.

T1 sequence (P56729 with tags, fused parts or gaps): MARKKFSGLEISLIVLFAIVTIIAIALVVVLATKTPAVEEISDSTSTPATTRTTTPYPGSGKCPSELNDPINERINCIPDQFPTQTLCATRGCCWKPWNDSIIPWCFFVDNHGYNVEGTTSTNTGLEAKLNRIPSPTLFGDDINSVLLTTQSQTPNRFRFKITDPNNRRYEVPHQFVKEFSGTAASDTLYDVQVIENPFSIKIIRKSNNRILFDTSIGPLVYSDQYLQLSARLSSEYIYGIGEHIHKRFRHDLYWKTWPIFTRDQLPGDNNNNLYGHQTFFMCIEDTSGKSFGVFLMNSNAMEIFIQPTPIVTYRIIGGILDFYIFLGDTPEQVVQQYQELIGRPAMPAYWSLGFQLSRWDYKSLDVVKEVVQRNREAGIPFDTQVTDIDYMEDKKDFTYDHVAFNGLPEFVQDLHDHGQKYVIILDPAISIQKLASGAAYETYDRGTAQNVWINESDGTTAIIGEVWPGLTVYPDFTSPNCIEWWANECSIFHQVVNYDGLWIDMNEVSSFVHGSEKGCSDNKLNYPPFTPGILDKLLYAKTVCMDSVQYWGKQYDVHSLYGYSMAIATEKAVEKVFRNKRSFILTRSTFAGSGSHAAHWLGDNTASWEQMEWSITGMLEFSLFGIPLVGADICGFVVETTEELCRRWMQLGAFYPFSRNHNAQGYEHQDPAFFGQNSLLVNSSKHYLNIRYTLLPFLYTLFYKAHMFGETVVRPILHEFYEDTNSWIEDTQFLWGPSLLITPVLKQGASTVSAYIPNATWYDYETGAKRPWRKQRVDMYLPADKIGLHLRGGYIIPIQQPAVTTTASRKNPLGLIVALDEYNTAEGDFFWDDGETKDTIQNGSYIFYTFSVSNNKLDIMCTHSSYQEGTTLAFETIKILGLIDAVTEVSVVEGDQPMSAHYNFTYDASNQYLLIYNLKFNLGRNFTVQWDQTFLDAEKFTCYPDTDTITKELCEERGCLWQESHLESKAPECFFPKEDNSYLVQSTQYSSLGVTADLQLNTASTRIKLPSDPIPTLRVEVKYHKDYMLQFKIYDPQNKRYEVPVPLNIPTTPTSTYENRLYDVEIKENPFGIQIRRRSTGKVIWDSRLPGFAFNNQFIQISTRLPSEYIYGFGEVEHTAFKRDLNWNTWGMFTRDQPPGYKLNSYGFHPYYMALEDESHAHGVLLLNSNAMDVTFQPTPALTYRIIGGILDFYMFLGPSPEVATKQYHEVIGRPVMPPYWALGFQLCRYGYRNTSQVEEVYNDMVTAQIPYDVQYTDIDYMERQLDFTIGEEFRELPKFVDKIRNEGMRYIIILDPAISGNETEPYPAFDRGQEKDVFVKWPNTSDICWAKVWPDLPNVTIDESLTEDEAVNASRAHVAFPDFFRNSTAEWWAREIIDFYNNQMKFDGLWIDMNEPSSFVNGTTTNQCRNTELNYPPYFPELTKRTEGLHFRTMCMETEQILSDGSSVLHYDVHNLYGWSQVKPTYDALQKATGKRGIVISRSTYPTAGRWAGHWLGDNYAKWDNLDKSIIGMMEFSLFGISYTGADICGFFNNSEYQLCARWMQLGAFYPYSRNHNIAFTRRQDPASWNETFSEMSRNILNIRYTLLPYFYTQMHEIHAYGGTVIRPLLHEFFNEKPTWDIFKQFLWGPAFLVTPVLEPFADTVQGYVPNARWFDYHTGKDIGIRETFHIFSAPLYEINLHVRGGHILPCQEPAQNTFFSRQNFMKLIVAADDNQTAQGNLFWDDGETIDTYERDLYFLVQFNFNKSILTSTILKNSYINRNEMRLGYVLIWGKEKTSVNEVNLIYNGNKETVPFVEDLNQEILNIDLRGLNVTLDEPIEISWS

`OC[C@H]1NC[C@H](O)[C@@H](O)[C@@H]1O` [Example 34, 1-desoxynojirimycin]: the specific saccharase-inhibitory activity in assay [1] is 540,000 SIU/g.

For `OC[C@H]1NC(O)[C@H](O)[C@@H](O)[C@@H]1O` (some centres unmarked) [nojirimycin], the “inhibition of microbial α-glucosidases” value with microbial α-glucosidases was “inhibits”.
